Measurements from patent EP4803630A1, “CELL FOR IDENTIFYING MAIT CELL LIGAND, AND METHOD FOR SCREENING MAIT CELL LIGAND USING SAID CELL” (The University of Osaka, priority 2023, dated 2025).
“Also recorded” adds a separate entry of the source.

Experiments:
[1] = system: TCR of MAIT cells; assay: co-expression reporter cell assay: NFAT-GFP expression on activation of MAIT TCR; assay type: cell-based; details: 37°C, 6-20 hr, GFP by flow cytometry
Excerpt: (§1) MAIT TCR genes and MR1 molecules genes were synthesized from mouse (Tiloy et al, J Exp Med. 1999) or human (4L4T, Protein Data Bank) and inserted into retroviral vectors (pMX-IRES-ratCD2, pMX-IRES-humanCD8), respectively. These plasmids were co-introduced into Phoenix packaging cells by using PEI MAX (Polysciences). […] MAIT TCR and MR1 co-expressing T cells (hereinafter also referred to as "co-expression reporter cells") were selected using antimouse TCRβ (H57-597), anti-human CD3 (HIT3a), and anti-human/mouse/rat MR1 (26.5) antibodies.
(§2) The validation experiment evaluated GFP expression and MR1 molecule surface expression 6 hr after stimulation of co-expression reporter cells with vehicle control, 5-OP-RU, and Ac-6-FP. GFP was evaluated by flow cytometry. MR1 molecule surface expression was represented by the MFI value of the stimulated cells.
(§3) In the above-mentioned screening, to stimulate "co-expression reporter cells," tissue extract samples and synthetic compounds were dissolved in water and added to each well of a 96-well plate in the absence of methylglyoxal. Some water-insoluble samples were dissolved in ethanol or chloroform/methanol (2:1, vol/vol) and coated onto the plates. "Co-expression reporter cells" (1-3×10^4 cells/100 µL/well) were cultured at 37°C for 6-20 hr, and the expression of GFP and MR1 molecules was analyzed by flow cytometry.

[2] = system: Human peripheral blood mononuclear cells (PBMCs); assay: sc-TCR-RNA-seq analysis of stimulated PBMCs; assay type: cell-based; details: PBMCs stimulated for several days; for gene expression signature (induced genes): in contrast to 5-OP-RU; for TCR expressed by surviving MAIT cells: TRAV1-2-TRAJ33/12/20:TRBV6-4/6-1/20-1
Procedure: Human peripheral blood mononuclear cells (PBMCs) were stimulated with CA7S and CA3S for several days, and then sc-TCR-RNA-seq analysis was performed.

[3] = system: MR1 molecule; assay: co-expression reporter cell assay: MR1 surface expression by flow cytometry; assay type: cell-based; details: co-expression reporter cells, 37°C, 6-20 hr, MFI by flow cytometry
Procedure: These plasmids were co-introduced into Phoenix packaging cells by using PEI MAX (Polysciences).
as §2, §3

[4] = system: MAIT TCRs derived from mouse (m); assay: reporter cell assay with mouse-derived MAIT TCR, mouse or human MR1; assay type: cell-based; details: regardless of the species of the MR1 molecule
Excerpt: as §1
as §3, with “cytometry. The same procedure was performed in the subsequent Examples. • (2) To determine the chemical structure of the activation molecule contained in fraction #84, this fraction was further purified by hydrophilic interaction chromatography (HILIC), and a single fraction (named #84-45) was recovered. […]” for “cytometry.”

[5] = system: MAIT cells in MR1-5-OP-RU tetramer-enriched thymocytes; assay: flow cytometry of thymic MAIT cells after administration to Sult2a-deficient mice; assay type: in vivo, mouse; details: 2-4 week old Sult2a-deficient mice administered with CA7S versus not administered
Procedure: The expression of MAIT cells in MR1-5-OP-RU tetramer-enriched thymocytes was analyzed by flow cytometry in 2-4 week old wild-type mice, Sult2a-deficient mice administered with CA7S, and Sult2a-deficient mice not administered with CA7S.
The data were obtained from experiments using three or more mice per group. *P<0.05, **P<0.01, P***<0.005, one-way ANOVA and Tukey's multiple comparison test were used.

[6] = system: MAIT TCRs derived from human (h); assay: reporter cell assay with human-derived MAIT TCR, mouse or human MR1; assay type: cell-based; details: regardless of the species of the MR1 molecule
Excerpt: as §1
as §3, with “cytometry. The same procedure was performed in the subsequent Examples. • (2) To determine the chemical structure of the activation molecule contained in fraction #84, this fraction was further purified by hydrophilic interaction chromatography (HILIC), and a single fraction (named #84-45) was recovered. […]” for “cytometry.”

Row | Structure (SMILES) | activation of the TCR of MAIT cells (GFP expression) [1] | expression of MR1 molecules on the T cell surface [3] | further results
1 | CC(=O)C=Nc1c(NC[C@H](O)[C@H](O)[C@H](O)CO)[nH]c(=O)[nH]c1=O [Analog 5-OP-RU, 5-(2-Oxopropylidene-amino)-6-D-ribitylaminouracil, reference compound] | dose-dependently enhanced GFP expression |  | 
2 | C[C@H](CCC(=O)O)[C@H]1CC[C@H]2[C@@H]3[C@H](O)C[C@@H]4C[C@H](OS(=O)(=O)O)CC[C@]4(C)[C@H]3C[C@H](O)[C@]12C [CA3S, cholic acid 3-sulfate] | activated MAIT reporter cells in the presence of MR1 molecules | similarly increased the expression of the MR1 molecule on the T cell surface | gene expression signature (induced genes) [2]: induced genes involved in homeostasis maintenance, such as IL7R, KLF2, and TCF7; TCR expressed by surviving MAIT cells [2]: expressed a representative MAIT TCR
3 | C[C@H](CCC(=O)O)[C@H]1CC[C@H]2[C@@H]3[C@H](OS(=O)(=O)O)C[C@@H]4C[C@H](O)CC[C@]4(C)[C@H]3C[C@H](O)[C@]12C [CA7S, cholic acid 7-sulfate] | activated reporter cells expressing MAIT TCR; also recorded: weak agonist | similarly increased the expression of the MR1 molecule on the T cell surface | activation of MAIT TCR derived from mouse (m) [4]: activated; gene expression signature (induced genes) [2]: induced genes involved in homeostasis maintenance, such as IL7R, KLF2, and TCF7; TCR expressed by surviving MAIT cells [2]: expressed a representative MAIT TCR; MAIT cells in thymocytes [5]: restored MAIT cells; activation of MAIT TCR derived from human (h) [6]: activated
4 | C[C@H](CCC(=O)O)[C@H]1CC[C@H]2[C@@H]3[C@H](O)C[C@@H]4C[C@H](O)CC[C@]4(C)[C@H]3C[C@H](OS(=O)(=O)O)[C@]12C [CA12S] | did not | similarly increased the expression of the MR1 molecule on the T cell surface | 
5 | C[C@H](CCC(=O)O)[C@H]1CC[C@H]2[C@@H]3[C@H](O)C[C@@H]4C[C@H](O)CC[C@]4(C)[C@H]3C[C@H](O)[C@]12C [CA, cholic acid, reference compound] | did not activate | did not activate | 
6 | C[C@H](CCC(=O)O)[C@H]1CC[C@H]2[C@@H]3CC[C@@H]4C[C@H](OS(=O)(=O)O)CC[C@]4(C)[C@H]3C[C@H](O)[C@]12C [DCA3S, deoxy-CA3S, reference compound] | did not show activity in reporter cells |  | 
7 | C[C@H](CCC(=O)O)[C@H]1CC[C@H]2[C@@H]3CC[C@@H]4C[C@H](OS(=O)(=O)O)CC[C@]4(C)[C@H]3CC[C@]12C [LCA3S, litho-CA3S, reference compound] | did not show activity in reporter cells |  | 
8 | C[C@H](CCC(=O)NCCS(=O)(=O)O)[C@H]1CC[C@H]2[C@@H]3[C@H](O)C[C@@H]4C[C@H](OS(=O)(=O)O)CC[C@]4(C)[C@H]3C[C@H](O)[C@]12C [TCA3S] | showed no activity | showed no activity | 
9 | C[C@H](CCC(=O)NCCS(=O)(=O)O)[C@H]1CC[C@H]2[C@@H]3[C@H](OS(=O)(=O)O)C[C@@H]4C[C@H](O)CC[C@]4(C)[C@H]3C[C@H](O)[C@]12C [TCA7S] | showed no activity | showed no activity | 
10 | C[C@H](CCC(=O)NCCS(=O)(=O)O)[C@H]1CC[C@H]2[C@@H]3CC[C@@H]4C[C@H](OS(=O)(=O)O)CC[C@]4(C)[C@H]3CC[C@]12C [TLCA3S, taurolitho-CA3S, reference compound] | did not show activity in reporter cells |  | 
